Where two headings read alike, the source gives them in different places.
Legend:
[1] = in vitro; details: human, uninfected MT-4 cells
Description: Compounds were serially diluted (1:3) in DMSO on 384-well polypropylene plates and further diluted 200-fold into complete RPMI media (10% FBS, 1% P/S) using the Biotek Micro Flow and Labcyte ECHO acoustic dispenser. […] Infected and uninfected MT-4 cells were further diluted in complete RPMI media and added to each plate using a Micro Flow dispenser. After 5 days incubation in a humidified and temperature controlled incubator (37° C.), Cell Titer Glo (Promega) was added to the assay plates and chemiluminescence read using an Envision plate-reader.
Assays were performed as above except uninfected MT-4 cells were added to each well containing test compound. In addition, 10 μM puromycin was added to the last column of each assay plate to assess a base level of cytotoxicity.

[2] = system: HIV-1 (IIIB); experiment: microbe, parasite or virus in culture; assay type: cell-based; details: Human immunodeficiency virus 1, IIIB, MT4, 120 h, read-out: MT4 EC50
[3] = system: pLAI reporter virus; experiment: microbe, parasite or virus in culture; assay type: cell-based, HIV; details: Human immunodeficiency virus 1, MT4, 72 h
[4] = HIV-1 (IIIB) in MT-4 cells, 5 days incubation, Cell Titer Glo

C[C@H]1CC[C@]2(CC(C(C)(F)F)=NO2)[C@H]2CN1C(=O)c1c(O)c(=O)c(C(=O)NCc3c(F)cc(F)cc3F)cn12 [Example 71, (3′S,5S,7′R)-3-(1,1-difluoroethyl)-12′-hydroxy-3′-methyl-1′,11′-dioxo-N-(2,4,6-trifluorobenzyl)-1′,4′,5′,11′-tetrahydro-3′H,4H,7′H-spiro[isoxazole-5,6′-[2,7]methanopyrido[1,2-a][1,4]diazonine]-10′-carboxamide]
CC50 at 5 days [1]: 32100 nM
EC50 [2, 4]: 3.3 nM
EC50 ([3]; read-out: RLUC 50% HS EC50): 82.4 nM
EC50 ([3]; read-out: RLUC CCM EC50): 0.2 nM

C[C@H]1CC[C@]2(CC=NO2)[C@H]2CN1C(=O)c1c(O)c(=O)c(C(=O)NCc3c(F)cc(F)cc3F)cn12 [Example 72, (3′S,5S,7′R)-12′-hydroxy-3′-methyl-1′,11′-dioxo-N-(2,4,6-trifluorobenzyl)-1′,4′,5′,11′-tetrahydro-3′H,4H,7′H-spiro[isoxazole-5,6′-[2,7]methanopyrido[1,2-a][1,4]diazonine]-10′-carboxamide]
CC50 at 5 days [1]: 31900 nM
EC50 [2, 4]: 1.2 nM
EC50 ([3]; read-out: RLUC 50% HS EC50): 108 nM
EC50 ([3]; read-out: RLUC CCM EC50): 0.3 nM

C[C@H]1CC[C@]2(CC(C(F)(F)F)=NO2)[C@H]2CN1C(=O)c1c(O)c(=O)c(C(=O)NCc3c(F)cc(F)cc3F)cn12 [Example 73, (3′S,5S,7′R)-12′-hydroxy-3′-methyl-1′,11′-dioxo-N-(2,4,6-trifluorobenzyl)-3-(trifluoromethyl)-1′,4′,5′,11′-tetrahydro-3′H,4H,7′H-spiro[isoxazole-5,6′-[2,7]methanopyrido[1,2-a][1,4]diazonine]-10′-carboxamide]
CC50 at 5 days [1]: 31200 nM
EC50 [2, 4]: 1.1 nM
EC50 ([3]; read-out: RLUC 50% HS EC50): 65.2 nM
EC50 ([3]; read-out: RLUC CCM EC50): 0.2 nM

C[C@H]1CC[C@]2(CC(N3CCC3)=NO2)[C@H]2CN1C(=O)c1c(O)c(=O)c(C(=O)NCc3c(F)cc(F)cc3F)cn12 [Example 74, (3′S,5S,7′R)-3-(azetidin-1-yl)-12′-hydroxy-3′-methyl-1′,11′-dioxo-N-(2,4,6-trifluorobenzyl)-1′,4′,5′,11′-tetrahydro-3′H,4H,7′H-spiro[isoxazole-5,6′-[2,7]methanopyrido[1,2-a][1,4]diazonine]-10′-carboxamide]
CC50 at 5 days [1]: 22300 nM
EC50 [2]: 2.1 nM
EC50 ([3]; read-out: RLUC 50% HS EC50): 4.9 nM
EC50 ([3]; read-out: RLUC CCM EC50): 0.4 nM

C[C@H]1CC[C@]2(CC(N3CCCC3)=NO2)[C@H]2CN1C(=O)c1c(O)c(=O)c(C(=O)NCc3c(F)cc(F)cc3F)cn12 [Example 75, (3′S,5S,7′R)-12′-hydroxy-3′-methyl-1′,11′-dioxo-3-(pyrrolidin-1-yl)-N-(2,4,6-trifluorobenzyl)-1′,4′,5′,11′-tetrahydro-3′H,4H,7′H-spiro[isoxazole-5,6′-[2,7]methanopyrido[1,2-a][1,4]diazonine]-10′-carboxamide]
CC50 at 5 days [1]: 14100 nM
EC50 [2, 4]: 1.8 nM
EC50 ([3]; read-out: RLUC 50% HS EC50): 1.8 nM
EC50 ([3]; read-out: RLUC CCM EC50): 0.3 nM

C[C@H]1CC[C@]2(CC(n3cnnc3)=NO2)[C@H]2CN1C(=O)c1c(O)c(=O)c(C(=O)NCc3c(F)cc(F)cc3F)cn12 [Example 76, (3′S,5S,7′R)-12′-hydroxy-3′-methyl-1′,11′-dioxo-3-(4H-1,2,4-triazol-4-yl)-N-(2,4,6-trifluorobenzyl)-1′,4′,5′,11′-tetrahydro-3′H,4H,7′H-spiro[isoxazole-5,6′-[2,7]methanopyrido[1,2-a][1,4]diazonine]-10′-carboxamide]
CC50 at 5 days [1]: 10100 nM
EC50 [2, 4]: 2.2 nM
EC50 ([3]; read-out: RLUC 50% HS EC50): 3.3 nM
EC50 ([3]; read-out: RLUC CCM EC50): 0.4 nM

C[C@H]1CC[C@]2(CC(n3cccn3)=NO2)[C@H]2CN1C(=O)c1c(O)c(=O)c(C(=O)NCc3c(F)cc(F)cc3F)cn12 [Example 77, (3′S,5S,7′R)-12′-hydroxy-3′-methyl-1′,11′-dioxo-3-(1H-pyrazol-1-yl)-N-(2,4,6-trifluorobenzyl)-1′,4′,5′,11′-tetrahydro-3′H,4H,7′H-spiro[isoxazole-5,6′-[2,7]methanopyrido[1,2-a][1,4]diazonine]-10′-carboxamide]
CC50 at 5 days [1]: 1480 nM
EC50 [2, 4]: 2.9 nM
EC50 ([3]; read-out: RLUC 50% HS EC50): 17.7 nM
EC50 ([3]; read-out: RLUC CCM EC50): 0.5 nM

C[C@H]1CC[C@]2(CC(C#CC(C)(C)S(C)(=O)=O)=NO2)[C@H]2CN1C(=O)c1c(O)c(=O)c(C(=O)NCc3c(F)cc(F)cc3F)cn12 [Example 79, (3′S,5S,7′R)-12′-hydroxy-3′-methyl-3-(3-methyl-3-(methylsulfonyl)but-1-yn-1-yl)-1′,11′-dioxo-N-(2,4,6-trifluorobenzyl)-1′,4′,5′,11′-tetrahydro-3′H,4H,7′H-spiro[isoxazole-5,6′-[2,7]methanopyrido[1,2-a][1,4]diazonine]-10′-carboxamide]
CC50 at 5 days [1]: ≥ 50000 nM
EC50 [2, 4]: 4.8 nM
EC50 ([3]; read-out: RLUC 50% HS EC50): 1.4 nM
EC50 ([3]; read-out: RLUC CCM EC50): 1 nM

C[C@H]1CC[C@@]2(CC(C#CC(C)(C)S(C)(=O)=O)=NO2)[C@H]2CN1C(=O)c1c(O)c(=O)c(C(=O)NCc3c(F)cc(F)cc3F)cn12 [Example 80, (3′S,5R,7′R)-12′-hydroxy-3′-methyl-3-(3-methyl-3-(methylsulfonyl)but-1-yn-1-yl)-1′,11′-dioxo-N-(2,4,6-trifluorobenzyl)-1′,4′,5′,11′-tetrahydro-3′H,4H,7′H-spiro[isoxazole-5,6′-[2,7]methanopyrido[1,2-a][1,4]diazonine]-10′-carboxamide]
CC50 at 5 days [1]: ≥ 50000 nM
EC50 [2, 4]: 81.5 nM
EC50 ([3]; read-out: RLUC 50% HS EC50): 30.1 nM
EC50 ([3]; read-out: RLUC CCM EC50): 15.7 nM

C[C@H]1CC[C@]2(CC(C#CC(C)(C)O)=NO2)[C@H]2CN1C(=O)c1c(O)c(=O)c(C(=O)NCc3c(F)cc(F)cc3F)cn12 [Example 81, (3′S,5S,7′R)-12′-hydroxy-3-(3-hydroxy-3-methylbut-1-yn-1-yl)-3′-methyl-1′,11′-dioxo-N-(2,4,6-trifluorobenzyl)-1′,4′,5′,11′-tetrahydro-3′H,4H,7′H-spiro[isoxazole-5,6′-[2,7]methanopyrido[1,2-a][1,4]diazonine]-10′-carboxamide]
CC50 at 5 days [1]: 19600 nM
EC50 [2, 4]: 2.1 nM
EC50 ([3]; read-out: RLUC 50% HS EC50): 0.6 nM
EC50 ([3]; read-out: RLUC CCM EC50): 0.5 nM

C[C@H]1CC[C@]2(CC(F)=NO2)[C@H]2CN1C(=O)c1c(O)c(=O)c(C(=O)NCc3c(F)cc(F)cc3F)cn12 [Example 82, (3′S,5S,7′R)-3-fluoro-12′-hydroxy-3′-methyl-1′,11′-dioxo-N-(2,4,6-trifluorobenzyl)-1′,4′,5′,11′-tetrahydro-3′H,4H,7′H-spiro[isoxazole-5,6′-[2,7]methanopyrido[1,2-a][1,4]diazonine]-10′-carboxamide]
CC50 at 5 days [1]: 5460 nM
EC50 [2, 4]: 7.1 nM
EC50 ([3]; read-out: RLUC 50% HS EC50): 186 nM
EC50 ([3]; read-out: RLUC CCM EC50): 1.3 nM

[2H]C1C(OC)=NO[C@@]12CC[C@H](C)N1C[C@H]2n2cc(C(=O)NCc3c(F)cc(F)cc3F)c(=O)c(O)c2C1=O (stereo partly drawn) [Example 83, (3′S,5S,7′R)-12′-hydroxy-3-methoxy-3′-methyl-1′,11′-dioxo-N-(2,4,6-trifluorobenzyl)-1′,4′,5′,11′-tetrahydro-3′H,4H,7′H-spiro[isoxazole-5,6′-[2,7]methanopyrido[1,2-a][1,4]diazonine]-4-d-10′-carboxamide]
CC50 at 5 days [1]: 16200 nM
EC50 [2, 4]: 2.3 nM
EC50 ([3]; read-out: RLUC 50% HS EC50): 41.1 nM
EC50 ([3]; read-out: RLUC CCM EC50): 0.3 nM

COC1=NO[C@@]2(CC[C@H](C)N3C[C@H]2n2cc(C(=O)NCc4c(F)cc(F)cc4F)c(=O)c(O)c2C3=O)[C@H]1O [Example 84, (3′S,4R,5R,7′R)-4,12′-dihydroxy-3-methoxy-3′-methyl-1′,11′-dioxo-N-(2,4,6-trifluorobenzyl)-1′,4′,5′,11′-tetrahydro-3′H,4H,7′H-spiro[isoxazole-5,6′-[2,7]methanopyrido[1,2-a][1,4]diazonine]-10′-carboxamide]
CC50 at 5 days [1]: 25800 nM
EC50 [2, 4]: 1.6 nM
EC50 ([3]; read-out: RLUC 50% HS EC50): 22.3 nM
EC50 ([3]; read-out: RLUC CCM EC50): 0.3 nM

COC1=NO[C@@]2(CC[C@H](C)N3C[C@H]2n2cc(C(=O)NCc4c(F)cc(F)cc4F)c(=O)c(O)c2C3=O)[C@H]1C [Example 85, (3′S,4R,5S,7′R)-12′-hydroxy-3-methoxy-3′,4-dimethyl-1′,11′-dioxo-N-(2,4,6-trifluorobenzyl)-1′,4′,5′,11′-tetrahydro-3′H,4H,7′H-spiro[isoxazole-5,6′-[2,7]methanopyrido[1,2-a][1,4]diazonine]-10′-carboxamide]
CC50 at 5 days [1]: 29600 nM
EC50 [2, 4]: 1 nM
EC50 ([3]; read-out: RLUC 50% HS EC50): 28.7 nM
EC50 ([3]; read-out: RLUC CCM EC50): 0.2 nM

COC1=NO[C@@]2(CC[C@H](C)N3C[C@H]2n2cc(C(=O)NCc4c(F)cc(F)cc4F)c(=O)c(O)c2C3=O)[C@@H]1F [Example 86, (3′S,4S,5R,7′R)-4-fluoro-12′-hydroxy-3-methoxy-3′-methyl-1′,11′-dioxo-N-(2,4,6-trifluorobenzyl)-1′,4′,5′,11′-tetrahydro-3′H,4H,7′H-spiro[isoxazole-5,6′-[2,7]methanopyrido[1,2-a][1,4]diazonine]-10′-carboxamide]
CC50 at 5 days [1]: 11900 nM
EC50 [2, 4]: 1.2 nM
EC50 ([3]; read-out: RLUC 50% HS EC50): 68.4 nM
EC50 ([3]; read-out: RLUC CCM EC50): 0.3 nM

COC1=NO[C@@]2(CC[C@H](C)N3C[C@H]2n2cc(C(=O)NCc4c(F)cc(F)cc4F)c(=O)c(O)c2C3=O)[C@H]1F [Example 87, (3′S,4R,5R,7′R)-4-fluoro-12′-hydroxy-3-methoxy-3′-methyl-1′,11′-dioxo-N-(2,4,6-trifluorobenzyl)-1′,4′,5′,11′-tetrahydro-3′H,4H,7′H-spiro[isoxazole-5,6′-[2,7]methanopyrido[1,2-a][1,4]diazonine]-10′-carboxamide]
CC50 at 5 days [1]: 10500 nM
EC50 [2, 4]: 1.2 nM
EC50 ([3]; read-out: RLUC 50% HS EC50): 31.8 nM
EC50 ([3]; read-out: RLUC CCM EC50): 0.2 nM

C[C@H]1CC[C@@]2(ON=C(CF)[C@@H]2O)[C@H]2CN1C(=O)c1c(O)c(=O)c(C(=O)NCc3c(F)cc(F)cc3F)cn12 [Example 88, (3′S,4S,5R,7′R)-3-(fluoromethyl)-4,12′-dihydroxy-3′-methyl-1′,11′-dioxo-N-(2,4,6-trifluorobenzyl)-1′,4′,5′,11′-tetrahydro-3′H,4H,7′H-spiro[isoxazole-5,6′-[2,7]methanopyrido[1,2-a][1,4]diazonine]-10′-carboxamide]
CC50 at 5 days [1]: ≥ 50000 nM
EC50 [2, 4]: 2.6 nM
EC50 ([3]; read-out: RLUC 50% HS EC50): 280 nM
EC50 ([3]; read-out: RLUC CCM EC50): 0.3 nM
